This is an account of results in patent US9670212B2, “Inhibitors of PI3K-delta and methods of their use and manufacture” (Exelixis, Inc., priority 2010, dated 2017).

SMILES strings stand for the structures. Bounds are passed on as bounds.

The IC50 is the midpoint of a concentration-inhibition curve. The low end stands for higher potency, the high end for lower potency.

PI3K delta, sequence (O00329 whole entry): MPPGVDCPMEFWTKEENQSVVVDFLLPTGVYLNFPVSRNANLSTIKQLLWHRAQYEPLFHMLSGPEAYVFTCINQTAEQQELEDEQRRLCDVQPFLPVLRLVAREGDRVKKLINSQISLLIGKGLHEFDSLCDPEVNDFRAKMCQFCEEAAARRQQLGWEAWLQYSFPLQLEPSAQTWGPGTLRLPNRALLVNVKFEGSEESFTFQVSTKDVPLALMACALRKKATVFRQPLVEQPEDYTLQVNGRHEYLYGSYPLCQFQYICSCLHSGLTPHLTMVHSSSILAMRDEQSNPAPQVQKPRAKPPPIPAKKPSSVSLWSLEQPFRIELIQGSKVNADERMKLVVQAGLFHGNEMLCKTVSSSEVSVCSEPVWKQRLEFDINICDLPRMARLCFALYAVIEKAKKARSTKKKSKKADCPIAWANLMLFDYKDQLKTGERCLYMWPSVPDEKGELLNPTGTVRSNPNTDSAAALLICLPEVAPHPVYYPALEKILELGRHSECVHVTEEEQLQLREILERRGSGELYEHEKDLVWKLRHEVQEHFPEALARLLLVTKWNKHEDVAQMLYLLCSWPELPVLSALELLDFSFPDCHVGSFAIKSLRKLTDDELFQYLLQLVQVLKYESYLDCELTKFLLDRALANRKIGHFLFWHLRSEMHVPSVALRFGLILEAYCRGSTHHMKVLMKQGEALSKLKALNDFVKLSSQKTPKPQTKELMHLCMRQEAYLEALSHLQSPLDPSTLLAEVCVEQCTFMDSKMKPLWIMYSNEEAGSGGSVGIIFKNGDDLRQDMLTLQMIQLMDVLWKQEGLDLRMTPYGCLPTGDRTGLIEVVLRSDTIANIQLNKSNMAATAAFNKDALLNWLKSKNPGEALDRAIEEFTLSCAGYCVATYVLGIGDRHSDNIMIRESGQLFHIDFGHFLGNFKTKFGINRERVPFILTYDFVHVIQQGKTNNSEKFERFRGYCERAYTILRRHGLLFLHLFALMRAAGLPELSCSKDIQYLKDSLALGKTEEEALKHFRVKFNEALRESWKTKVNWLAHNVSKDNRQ
PI3K delta, sequence (P27986 whole entry partner): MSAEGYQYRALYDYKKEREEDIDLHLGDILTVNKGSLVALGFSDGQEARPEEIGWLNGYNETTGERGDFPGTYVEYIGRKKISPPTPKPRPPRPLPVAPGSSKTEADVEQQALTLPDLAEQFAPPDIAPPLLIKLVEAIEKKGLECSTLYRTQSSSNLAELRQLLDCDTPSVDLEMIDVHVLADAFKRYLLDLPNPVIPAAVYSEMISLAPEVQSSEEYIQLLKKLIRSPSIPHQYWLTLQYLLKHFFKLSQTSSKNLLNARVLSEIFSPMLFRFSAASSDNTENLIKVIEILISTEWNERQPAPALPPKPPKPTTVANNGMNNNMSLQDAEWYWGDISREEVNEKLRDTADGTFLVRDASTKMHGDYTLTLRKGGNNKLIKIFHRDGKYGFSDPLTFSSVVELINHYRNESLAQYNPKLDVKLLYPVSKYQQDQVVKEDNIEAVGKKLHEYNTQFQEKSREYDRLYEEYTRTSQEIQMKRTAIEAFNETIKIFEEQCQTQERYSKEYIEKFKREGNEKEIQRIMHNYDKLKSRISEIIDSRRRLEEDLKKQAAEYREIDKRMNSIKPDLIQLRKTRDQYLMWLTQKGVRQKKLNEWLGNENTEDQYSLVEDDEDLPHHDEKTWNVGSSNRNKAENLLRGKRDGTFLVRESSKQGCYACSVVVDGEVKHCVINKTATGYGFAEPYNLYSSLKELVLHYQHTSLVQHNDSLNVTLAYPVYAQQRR

The assay concerns the target PI3K delta (Homo sapiens (Human), UniProt O00329). As to the kind of experiment: Luciferase-coupled chemiluminescence kinase assay (KinaseGlo, ATP consumption). The assay is classed as biochemical. The method, then: Kinase activity and compound inhibition were investigated using one or more of the assay formats described below. The ATP concentrations used in the various assays were approximately equal to or less than the KM for each of the respective kinases. Dose-response experiments were performed using an intra-plate dilution scheme with 10 different inhibitor concentrations in a 384-well microtiter plate. […] Typically N should approximate unity. Curve fitting was performed using XLFit or ActivityBase. Luciferase-Coupled Chemiluminescence Assay Protocol
Kinase activity is measured as the percent of ATP consumed following the kinase reaction using luciferase-luciferin-coupled chemiluminescence. […] Kinase reactions were initiated by combining test compounds, kinase, and ATP in a 20 μL volume (6 μL volume for 1536-well plate). The reaction mixture was incubated at ambient temperature for 2 h. Following the kinase reaction, a 20 μL (or 3 μL for 1536-well plate) aliquot of KinaseGlo (Promega) was added and the chemiluminescence signal measured using an EnVision plate reader (Perkin Elmer).
In the case of `Cc1nc(C)n(CC(=O)N(C)CCN(C)c2nc3c(C)cccc3cc2CNC(=O)c2nccnc2N)n1` [Compound 43, 3-amino-N-({2-[(2-{[(3,5-dimethyl-1H-1,2,4-triazol-1-yl)acetyl](methyl)amino}ethyl)(methyl)amino]-8-methylquinolin-3-yl}methyl)pyrazine-2-carboxamide], the IC50 was under 0.05 µM.

Compound `Cc1cccc2cc(CNC(=O)c3nccnc3N)c(N3CCC(NCC(=O)N(C)C)C3)nc12` (stereo not shown) [Compound 44, 3-amino-N-{[2-(3-{[2-(dimethylamino)-2-oxoethyl]amino}pyrrolidin-1-yl)-8-methylquinolin-3-yl]methyl}pyrazine-2-carboxamide] came in with a 50% inhibitory concentration (IC50) of 0.5 to 1.5 µM.

`Cc1cccc2cc(CNC(=O)c3nccnc3N)c(N3CCC(NC(=O)Cn4ccnn4)C3)nc12` (stereo not shown) [Compound 45, 3-amino-N-[(8-methyl-2-{3-[(1H-1,2,3-triazol-1-ylacetyl)amino]pyrrolidin-1-yl}quinolin-3-yl)methyl]pyrazine-2-carboxamide] came in with an IC50 of 0.5 to 1.5 µM.

Compound `Cc1cccc2cc(CNC(=O)c3nccnc3N)c(N(Cc3cccnc3)Cc3cccnc3)nc12` [Compound 46, 3-amino-N-({2-[bis(pyridin-3-ylmethyl)amino]-8-methylquinolin-3-yl}methyl)pyrazine-2-carboxamide] displayed an IC50 of 0.25 to 0.5 µM.

`Cc1cccc2cc(CNC(=O)c3nccnc3N)c(N(Cc3ccccn3)Cc3ccccn3)nc12` [Compound 47, 3-amino-N-({2-[bis(pyridin-2-ylmethyl)amino]-8-methylquinolin-3-yl}methyl)pyrazine-2-carboxamide] came in with an IC50 of 0.5 to 1.5 µM.

With `Cc1cccc2cc(CNC(=O)c3nccnc3N)c(N(C)CCN(C)C(=O)Cn3cccn3)nc12` [Compound 49, 3-amino-N-{[8-methyl-2-(methyl{2-[methyl(1H-pyrazol-1-ylacetyl)amino]ethyl}amino)quinolin-3-yl]methyl}pyrazine-2-carboxamide], the half-maximal inhibitory concentration (IC50) is under 0.05 µM.

`Cc1cccc2cc(CNC(=O)c3nccnc3N)c(CCCO)nc12` [Compound 50, 3-amino-N-{[2-(3-hydroxypropyl)-8-methylquinolin-3-yl]methyl}pyrazine-2-carboxamide] came in with an IC50 of 0.5 to 1.5 µM.

On to `Cc1cccc2cc(CNC(=O)c3nccnc3N)c(N(C)CCNC(=O)Cn3ccnn3)nc12` [Compound 51, 3-amino-N-{[8-methyl-2-(methyl{2-[(1H-1,2,3-triazol-1-ylacetyl)amino]ethyl}amino)quinolin-3-yl]methyl}pyrazine-2-carboxamide], for which the IC50 was 0.05 to 0.25 µM.

As to `Cc1cccc2nc(CNC(=O)c3nccnc3N)c(-c3ccccc3CN(C)C)cc12` [Compound 52, 3-amino-N-[(3-{2-[(dimethylamino)methyl]phenyl}-5-methylquinolin-2-yl)methyl]pyrazine-2-carboxamide], the 50% inhibitory concentration (IC50) is under 0.05 µM.

With `Cc1cccc2cc(CNC(=O)c3nccnc3N)c(N3CCCN(C(=O)Cn4cnc5ccccc54)CC3)nc12` [Compound 53, 3-amino-N-({2-[4-(1H-benzimidazol-1-ylacetyl)-1,4-diazepan-1-yl]-8-methylquinolin-3-yl}methyl)pyrazine-2-carboxamide], the IC50 was in the range of 0.5 to 1.5 µM.

For the compound `Cc1cccc2cc(CNC(=O)c3nccnc3N)c(N3CCCN(C(=O)Cn4ccnc4)CC3)nc12` [Compound 54, 3-amino-N-({2-[4-(1H-imidazol-1-ylacetyl)-1,4-diazepan-1-yl]-8-methylquinolin-3-yl}methyl)pyrazine-2-carboxamide], the IC50 fell in the range of 0.5 to 1.5 µM.

For the compound `Cc1cccc2cc(CNC(=O)c3nccnc3N)c(N3CCCN(C(=O)Cn4ccnc4C)CC3)nc12` [Compound 55, 3-amino-N-[(8-methyl-2-{4-[(2-methyl-1H-imidazol-1-yl)acetyl]-1,4-diazepan-1-yl}quinolin-3-yl)methyl]pyrazine-2-carboxamide], the IC50 lay within 0.5 to 1.5 µM.

Turning to `CN(C)C(=O)c1ccccc1-c1cc2ccccc2nc1CNC(=O)c1nccnc1N` [Compound 56, 3-amino-N-[(3-{2-[(dimethylamino)carbonyl]phenyl}quinolin-2-yl)methyl]pyrazine-2-carboxamide], the IC50 fell in the range of 0.25 to 0.5 µM.

`Cc1cccc2cc(CNC(=O)c3nccnc3N)c(N3CCCN(Cc4cccn4C)CC3)nc12` [Compound 57, 3-amino-N-[(8-methyl-2-{4-[(1-methyl-1H-pyrrol-2-yl)methyl]-1,4-diazepan-1-yl}quinolin-3-yl)methyl]pyrazine-2-carboxamide] showed a half-maximal inhibitory concentration (IC50) of 0.5 to 1.5 µM.

Regarding `Cc1ccc(CN2CCCN(c3nc4c(C)cccc4cc3CNC(=O)c3nccnc3N)CC2)o1` [Compound 58, 3-amino-N-[(8-methyl-2-{4-[(5-methylfuran-2-yl)methyl]-1,4-diazepan-1-yl}quinolin-3-yl)methyl]pyrazine-2-carboxamide], the IC50 was 0.5 to 1.5 µM.

Take `Nc1nccnc1C(=O)NCc1nc2ccccc2cc1-c1ccccc1CN1CCCCC1` [Compound 59, 3-amino-N-({3-[2-(piperidin-1-ylmethyl)phenyl]quinolin-2-yl}methyl)pyrazine-2-carboxamide]: the IC50 lay in the range of 0.05 to 0.25 µM.

`Cc1cccc2cc(CNC(=O)c3nccnc3N)c(N3CCCN(C(=O)Cn4ccnn4)CC3)nc12` [Compound 60, 3-amino-N-({8-methyl-2-[4-(1H-1,2,3-triazol-1-ylacetyl)-1,4-diazepan-1-yl]quinolin-3-yl}methyl)pyrazine-2-carboxamide] registered a 50% inhibitory concentration (IC50) of 0.25 to 0.5 µM.

In the case of `Cc1cccc2cc(CNC(=O)c3nccnc3N)c(N3CCCN(C(=O)Cn4nccn4)CC3)nc12` [Compound 61, 3-amino-N-({8-methyl-2-[4-(2H-1,2,3-triazol-2-ylacetyl)-1,4-diazepan-1-yl]quinolin-3-yl}methyl)pyrazine-2-carboxamide], the concentration for half-maximal inhibition (IC50) is 0.5 to 1.5 µM.

Compound `Cc1cccc2cc(CNC(=O)c3nccnc3N)c(N3CCCN(Cc4nccn4C)CC3)nc12` [Compound 62, 3-amino-N-[(8-methyl-2-{4-[(1-methyl-1H-imidazol-2-yl)methyl]-1,4-diazepan-1-yl}quinolin-3-yl)methyl]pyrazine-2-carboxamide] displayed an IC50 of 0.5 to 1.5 µM.

In the case of `Cc1cccc2cc(CNC(=O)c3nccnc3N)c(N3CCCN(Cc4cncn4C)CC3)nc12` [Compound 63, 3-amino-N-[(8-methyl-2-{4-[(1-methyl-1H-imidazol-5-yl)methyl]-1,4-diazepan-1-yl}quinolin-3-yl)methyl]pyrazine-2-carboxamide], the IC50 was in the range of 0.05 to 0.25 µM.

In turn, `Cc1cccc2cc(CNC(=O)c3nccnc3N)c(N3CCCN(Cc4cccnc4)CC3)nc12` [Compound 64, 3-amino-N-({8-methyl-2-[4-(pyridin-3-ylmethyl)-1,4-diazepan-1-yl]quinolin-3-yl}methyl)pyrazine-2-carboxamide] had a concentration for half-maximal inhibition (IC50) of 0.25 to 0.5 µM.

Turning to `Cc1cccc2cc(CNC(=O)c3nccnc3N)c(N3CCCN(Cc4ccncc4)CC3)nc12` [Compound 65, 3-amino-N-({8-methyl-2-[4-(pyridin-4-ylmethyl)-1,4-diazepan-1-yl]quinolin-3-yl}methyl)pyrazine-2-carboxamide], the IC50 was in the range of 0.5 to 1.5 µM.

Take `Cc1cccc2cc(CNC(=O)c3nccnc3N)c(N3CCCN(CC(=O)N(C)C)CC3)nc12` [Compound 66, 3-amino-N-[(2-{4-[2-(dimethylamino)-2-oxoethyl]-1,4-diazepan-1-yl}-8-methylquinolin-3-yl)methyl]pyrazine-2-carboxamide]: the half-inhibitory concentration (IC50) was 0.5 to 1.5 µM.

Regarding `CCCN1CCC[C@@H]1C(=O)N(C)CCN(C)c1nc2c(C)cccc2cc1CNC(=O)c1nccnc1N` [Compound 67, 3-amino-N-{[8-methyl-2-(methyl{2-[methyl(1-propyl-D-prolyl)amino]ethyl}amino)quinolin-3-yl]methyl}pyrazine-2-carboxamide], the half-inhibitory concentration (IC50) is under 0.05 µM.

In turn, `Cc1cccc2cc(CNC(=O)c3nccnc3N)c(N(C)CCN(C)Cc3ccccn3)nc12` [Compound 68, 3-amino-N-{[8-methyl-2-(methyl{2-[methyl(pyridin-2-ylmethyl)amino]ethyl}amino)quinolin-3-yl]methyl}pyrazine-2-carboxamide] registered a 50% inhibitory concentration (IC50) of 0.05 to 0.25 µM.

Consider `CN(C)Cc1cccc(-c2cc3ccccc3nc2CNC(=O)c2nccnc2N)c1` [Compound 69, 3-amino-N-[(3-{3-[(dimethylamino)methyl]phenyl}quinolin-2-yl)methyl]pyrazine-2-carboxamide], for which the IC50 lay in the range of 0.25 to 0.5 µM.

`Nc1nccnc1C(=O)NCc1nc2ccccc2cc1-c1ccccc1CN1CCOCC1` [Compound 70, 3-amino-N-({3-[2-(morpholin-4-ylmethyl)phenyl]quinolin-2-yl}methyl)pyrazine-2-carboxamide]: the IC50 lay within 0.25 to 0.5 µM.

In turn, `Nc1nccnc1C(=O)NCc1nc2ccccc2cc1-c1ccc(CN2CCOCC2)cc1` [Compound 71, 3-amino-N-({3-[4-(morpholin-4-ylmethyl)phenyl]quinolin-2-yl}methyl)pyrazine-2-carboxamide] came in with a half-maximal inhibitory concentration (IC50) of 0.5 to 1.5 µM.

For `Nc1nccnc1C(=O)NCc1nc2ccccc2cc1-c1cccc(CN2CCOCC2)c1` [Compound 72, 3-amino-N-({3-[3-(morpholin-4-ylmethyl)phenyl]quinolin-2-yl}methyl)pyrazine-2-carboxamide], the IC50 was 0.5 to 1.5 µM.

Turning to `Cc1cccc2cc(CNC(=O)c3nccnc3N)c(N(C)CCN(C)C(=O)[C@H]3CCCN3C(C)C)nc12` [Compound 73, 3-amino-N-({8-methyl-2-[methyl(2-{methyl[1-(1-methylethyl)-D-prolyl]amino}ethyl)amino]quinolin-3-yl}methyl)pyrazine-2-carboxamide], the IC50 is under 0.05 µM.

Compound `Cc1ccccc1-c1cc2ccccc2nc1CNC(=O)c1cnc(N)nc1` [Compound 74, 2-amino-N-{[3-(2-methylphenyl)quinolin-2-yl]methyl}pyrimidine-5-carboxamide] had an IC50 of 0.5 to 1.5 µM.
